The values below come from US20050032243A1, “Method and apparatus for rapid determination of ligand-protein binding using charcoal adsorption” (priority 2001, published 2005).

One series concerns HSA. Conditions: literature reference value; cited from earlier work.
Series [1] concerns the target T1, human serum albumin (HSA) (Homo sapiens, UniProt P02768). Description: Time course of ligand adsorption in packed-bed DCC cartridge in the presence of HSA. Conditions: HSA 40 mg/ml, at termination of experiment (5 minutes).
Experimental: Model Ligand Adsorption Experiments in the DCC Cartridge. […] Charcoal adsorption experiments were conducted in the packed-bed DCC cartridge (20 mg, 10% DCC). Cartridges were prepared and preconditioned with a 40-mg/ml solution of HSA. […] 200 μl samples were loaded onto the DCC cartridge. Elution was initiated and samples collected under vacuum at 1, 2, 5, 10, 20, 40, 60, 120 and 300 seconds.
Ligand Adsorption Experiments in the DCC Cartridge. […] Charcoal adsorption experiments were conducted in a packed-bed DCC cartridge (20 mg DCC, 10% w/w). Cartridges were prepared and preconditioned with a 40 mg/ml solution of HSA. […] 200 μl samples were loaded onto the DCC cartridge. Elution was initiated and samples collected under vacuum at 1, 2, 5, 10, 20, 40, 60, 120 and 300 seconds.
Series [2] deals with T1, human serum albumin (HSA). The series can be described thus: Extent of DCC adsorption as a function of unbound fraction (HSA dilutions, ultrafiltration). On the procedure: Solutions were allowed to incubate at room temperature for 30 minutes and 200 μl samples were loaded onto the DCC cartridge. Elution was initiated and samples collected under vacuum at 5, 10 and 60 seconds.
(§1) Ultrafiltration Experiments. […] Samples (0.5 ml) were centrifuged (1500×g; 3 minutes) at 25° C.
0.1 μCi/ml) in isotonic PBS and dilutions of a 40 mg/ml HSA solution were prepared. Solutions were allowed to incubate at room temperature for 30 minutes and 200 μl samples were loaded onto the DCC cartridge. Elution was initiated and samples were collected under vacuum at 1 second and at 60 seconds. Adsorption of each ligand also was evaluated after 2 hours of DCC exposure.
as §1
Evaluation of Alternative HSA Site I-Specific Ligands.
The relationship between the extent of adsorption and the unbound fraction for each ligand can be described by Equation 1. y=yo+a(1−e^−bx) Equation 1

Setting [3] is: 1 minute DCC exposure, mean ± SE.

The structures appear in SMILES notation.

T1 sequence (P02768 25-609): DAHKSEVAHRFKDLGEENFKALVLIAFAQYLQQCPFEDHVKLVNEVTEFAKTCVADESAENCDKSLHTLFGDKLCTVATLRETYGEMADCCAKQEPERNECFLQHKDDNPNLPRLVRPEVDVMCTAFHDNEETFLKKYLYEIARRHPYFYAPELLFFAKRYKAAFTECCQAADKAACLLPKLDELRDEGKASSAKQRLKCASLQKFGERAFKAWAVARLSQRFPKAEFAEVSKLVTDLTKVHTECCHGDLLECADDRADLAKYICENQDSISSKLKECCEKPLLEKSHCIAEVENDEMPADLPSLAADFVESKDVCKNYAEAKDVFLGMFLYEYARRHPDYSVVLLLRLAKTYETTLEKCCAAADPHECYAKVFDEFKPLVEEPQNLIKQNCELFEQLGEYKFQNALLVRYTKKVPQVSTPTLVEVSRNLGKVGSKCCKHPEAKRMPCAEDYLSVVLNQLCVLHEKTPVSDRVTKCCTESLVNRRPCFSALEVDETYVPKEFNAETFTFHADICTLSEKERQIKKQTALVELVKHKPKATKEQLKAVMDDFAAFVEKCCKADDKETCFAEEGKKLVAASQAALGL

As for `C[C@H]1O[C@@H](O[C@H]2[C@@H](O)C[C@H](O[C@H]3[C@@H](O)C[C@H](O[C@H]4CC[C@@]5(C)[C@H](CC[C@@H]6[C@@H]5CC[C@]5(C)[C@@H](C7=CC(=O)OC7)CC[C@]65O)C4)O[C@@H]3C)O[C@@H]2C)C[C@H](O)[C@@H]1O` [[^3H]-DIGT, digitoxin], the “UNBOUND FRACTION” value in the series on HSA is 0.05. Also, the “adsorption to DCC in the presence of HSA” value in series [1] is roughly 100%. Further, in series [2] (setting [3]), the “Yo (intercept of Equation 1, extent of adsorption at unbound fraction 0)” value was determined as 0; the “a (empirical parameter of Equation 1)” value worked out at 95.6 ± 0.3; the “b (empirical parameter of Equation 1)” value came out at 29.5 ± 0.7. Also, the “DCC adsorption as unbound fraction approached 0.2” value in series [2] (1 minute of charcoal exposure) is “nearly complete”.

On to `O=C1NC(=O)C(c2ccccc2)(c2ccccc2)N1` [[^3H]-DPH, diphenylhydantion], for which the “UNBOUND FRACTION” value with HSA is listed as 0.12. Also, in series [2], the “adsorption after 1 minute of exposure to DCC, restricted or not” value is listed as “not restricted”.

On to `CC(C)NCC(O)COc1cccc2ccccc12` (stereo not drawn) [[^3H]-PRO, propanonol], for which the “UNBOUND FRACTION” value with HSA was 0.13.

As to `N[C@@H](Cc1c[nH]c2ccccc12)C(=O)O` [[^3H]-TRP, L-tryptophan], the “UNBOUND FRACTION” value in the series on HSA was 0.5.

In general, fraction unbound refers to free concentration divided by total concentration. A lower fraction unbound goes with extensive binding. Turning to `CCCC(CCC)C(=O)O` [[^3H]-VPA, valproic acid, valproate], the “UNBOUND FRACTION” value in the series on HSA is reported as 0.1. In series [2], the “a (empirical parameter of Equation 1)” value is recorded as 82.9 ± 8.6 and the “b (empirical parameter of Equation 1)” value is reported as 1.5 ± 0.4. Besides, in series [2] (human), the “Yo (intercept of Equation 1, extent of adsorption at unbound fraction 0)” value was 27.0 ± 4.1 and the fraction unbound at 10 mg/ml is roughly 0.8.
